Data published in patent US20220249525A1, “Fatty Acid Compounds for Prevention and Treatment of Neurodegenerative Disorders” (T OMEGA AS, priority 2019, published 2022).

Experiments:
[1] = test system: MOLM-13 human acute leukemia cells; assay: WST-1 viability of MOLM-13 cells; type: cell-based; conditions: for Abs450 nm (WST-1 viability): complexed to BSA
Experimental: MOLM-13 suspension cells were diluted and added to 96-well plates (15.000 cells/well).
The modified fatty acids TTA, tr-TTA, TDG (TGH) and tr-TDG (tr-TGH) were complexed to bovine serum albumin (BSA), and 10-fold dilutions of the fatty acids or BSA control were added to the wells in duplicate. Two plates were run in parallel, and WST-1 was added to the cells after 48 (plate 1) and 72 hours (plate 2). Absorbance at 450 nm measured to assess viability of the cells.

[2] = 4 week high-fat diet study, body weight, adipose tissue, plasma glucose and cholesterol; type: in vivo, C57BL/6 mice; conditions: mice, N-TTA 750 mg/kg or triple-N-TTA 350 mg/kg body weight, 4 weeks
Experimental: This animal study was conducted according to the Guidelines for the Care and Use of Experimental Animals, and the protocol was approved by the Norwegian Food Authorities. 7 to 8-weeks old male C57BL/6 mice, were obtained from Janvier Labs. After one week of acclimatization, they were divided into 3 groups of 7 animals. One group was fed a control high-fat (25 w/v) diet while the two remaining groups were fed a high-fat diet supplemented with either N-TTA (750 mg/kg body weight) or triple-N-TTA (350 mg/kg body weight). After 4 weeks of feeding, the mice were anaesthetized with Isofluorane (Forane, Abbot Laboratories Ltd, Illinois, USA) inhalation under fasting conditions, and blood and liver samples were collected. […]
Glucose and lipids in plasma was measured on the Hitachi 917 system (Roche Diagnostics, GmbH, Mannheim, Germany) using kits from Roche Diagnostics or DiaSys.

CCCCCCCCCCCCCCNCC(=O)O [N-TTA, N-tetradecylglycine]
Abs450 nm (WST-1 viability) ([1]; 48 hours, 0.0625 mM): 0.9307
Abs450 nm (WST-1 viability) ([1]; 48 hours, 0.125 mM): 0.4765
Abs450 nm (WST-1 viability) ([1]; 48 hours, 0.25 mM): 0.5423
Abs450 nm (WST-1 viability) ([1]; 48 hours, 0.5 mM): 0.3207
Abs450 nm (WST-1 viability) ([1]; 48 hours, 1 mM): 0.257
Abs450 nm (WST-1 viability) ([1]; 48 hours, 2 mM): 0.3163
Abs450 nm (WST-1 viability) ([1]; 72 hours, 0.03125 mM): 0.4491
Abs450 nm (WST-1 viability) ([1]; 72 hours, 0.0625 mM): 0.8073
Abs450 nm (WST-1 viability) ([1]; 72 hours, 0.125 mM): 0.4813
Abs450 nm (WST-1 viability) ([1]; 72 hours, 0.25 mM): 0.203
Abs450 nm (WST-1 viability) ([1]; 72 hours, 0.5 mM): 0.175
Abs450 nm (WST-1 viability) ([1]; 72 hours, 1 mM): 0.1893
Abs450 nm (WST-1 viability) ([1]; 72 hours, 2 mM): 0.2359
toxicity to leukemic cells ([1]; MOLM-13, compared with TTA and tr-TTA): toxic to leukemic cells at a lower concentration than TTA and tr-TTA
LDL cholesterol (plasma) [2]: reduced
body weight gain vs high-fat control diet [2]: significantly lower
cholesterol esters (plasma) [2]: reduced
epididymal white adipose tissue depot [2]: reduced in size
free cholesterol (plasma) [2]: reduced
perirenal white adipose tissue depot [2]: reduced in size
total cholesterol (plasma) [2]: reduced
blood glucose vs high-fat control diet ([2]; fasting): significantly lower
